Data taken from ChEMBL document CHEMBL4184185, “Dihydrobenzisoxazole-4-one compounds are novel selective inhibitors of aldosterone synthase (CYP11B2) with in vivo activity” (Bioorg Med Chem Lett, 2018).
Active and inactive are the calls of the source. The rule behind the calls is not given here.

Legend:
[1] = Inhibition of cynomolgus monkey adrenal mitochondrial CYP11B1 using 11-deoxycortisol as substrate after 90 mins in presence of NADPH by mass spectrometric analysis
Macaca fascicularis [2] = organism: Macaca fascicularis; assay: Selectivity index, ratio of IC50 for cynomolgus monkey adrenal mitochondrial CYP11B1 to IC50 for cynomolgus monkey adrenal mitochondrial CYP11B2
[3] = Inhibition of cynomolgus monkey adrenal mitochondrial CYP11B2 using corticosterone as substrate after 60 mins in presence of NADPH by mass spectrometric analysis
[4] = Clearance in human liver microsomes relative to hepatic blood flow; assay type: ADME, microsome; conditions: read-out: CLH
[5] = target: T1, Steroid 17-alpha-hydroxylase/17,20 lyase (Homo sapiens, UniProt P05093); assay: Inhibition of CYP17A1 (unknown origin); assay type: ADME
T1 sequence (P05093 whole entry): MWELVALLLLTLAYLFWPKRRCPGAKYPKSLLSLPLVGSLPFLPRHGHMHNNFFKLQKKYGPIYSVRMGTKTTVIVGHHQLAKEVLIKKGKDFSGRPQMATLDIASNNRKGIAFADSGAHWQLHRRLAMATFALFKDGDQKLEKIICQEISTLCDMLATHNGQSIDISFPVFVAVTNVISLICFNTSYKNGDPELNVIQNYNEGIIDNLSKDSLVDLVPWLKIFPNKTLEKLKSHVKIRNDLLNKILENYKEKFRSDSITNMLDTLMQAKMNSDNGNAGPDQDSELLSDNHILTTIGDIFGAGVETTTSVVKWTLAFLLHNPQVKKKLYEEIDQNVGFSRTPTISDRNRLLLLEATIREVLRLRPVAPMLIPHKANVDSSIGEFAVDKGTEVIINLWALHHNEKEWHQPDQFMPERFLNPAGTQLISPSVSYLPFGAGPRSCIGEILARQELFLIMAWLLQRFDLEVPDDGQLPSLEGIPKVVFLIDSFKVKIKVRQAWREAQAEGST

Aromatase [6] = target: T2, Aromatase (Homo sapiens, UniProt P11511); assay: Inhibition of CYP19A1 (unknown origin)
T2 sequence (P11511 whole entry): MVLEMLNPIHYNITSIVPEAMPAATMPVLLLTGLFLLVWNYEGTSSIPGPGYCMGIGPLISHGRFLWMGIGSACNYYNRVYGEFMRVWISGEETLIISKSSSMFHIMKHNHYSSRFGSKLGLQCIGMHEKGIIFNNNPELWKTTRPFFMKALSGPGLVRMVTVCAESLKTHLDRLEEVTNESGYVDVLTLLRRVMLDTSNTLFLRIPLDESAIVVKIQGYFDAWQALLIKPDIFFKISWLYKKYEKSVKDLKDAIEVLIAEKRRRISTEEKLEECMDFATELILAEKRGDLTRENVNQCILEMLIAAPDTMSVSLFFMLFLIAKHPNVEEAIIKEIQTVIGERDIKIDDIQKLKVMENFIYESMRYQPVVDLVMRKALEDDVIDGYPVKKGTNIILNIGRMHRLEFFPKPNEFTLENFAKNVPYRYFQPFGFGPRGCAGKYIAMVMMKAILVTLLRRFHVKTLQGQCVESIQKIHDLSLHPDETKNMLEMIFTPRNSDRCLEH

[7] = target: T3, Cytochrome P450 11B2, mitochondrial (Homo sapiens, UniProt P19099); assay: Inhibition of recombinant human CYP11B2 expressed in Chinese hamster V79MZ cells assessed as reduction in aldosterone production at 20 uM by mass spectrometric method; assay type: cell-based
T3 sequence (P19099 whole entry): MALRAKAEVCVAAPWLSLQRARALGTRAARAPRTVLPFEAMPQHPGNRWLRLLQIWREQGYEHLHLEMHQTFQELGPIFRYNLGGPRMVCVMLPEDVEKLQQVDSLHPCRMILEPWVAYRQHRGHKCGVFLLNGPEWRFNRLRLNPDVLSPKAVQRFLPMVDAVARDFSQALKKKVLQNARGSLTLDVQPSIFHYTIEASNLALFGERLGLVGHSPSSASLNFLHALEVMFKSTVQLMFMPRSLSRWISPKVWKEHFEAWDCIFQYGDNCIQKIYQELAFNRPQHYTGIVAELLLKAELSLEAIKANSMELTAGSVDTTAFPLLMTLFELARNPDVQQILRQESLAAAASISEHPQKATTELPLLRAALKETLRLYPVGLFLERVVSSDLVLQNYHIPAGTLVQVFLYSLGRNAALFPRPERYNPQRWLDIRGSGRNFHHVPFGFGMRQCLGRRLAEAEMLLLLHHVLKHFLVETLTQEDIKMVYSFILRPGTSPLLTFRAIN

[8] = Oral bioavailability in Wistar Han rat; assay type: ADME, organism-based; conditions: in vivo
Cytochrome P450 2D6 = Cytochrome P450 2D6 (Homo sapiens, UniProt P10635); assay: Inhibition of CYP2D6 (unknown origin) at 30 uM; assay type: ADME
Sequence of Cytochrome P450 2D6 (P10635 whole entry): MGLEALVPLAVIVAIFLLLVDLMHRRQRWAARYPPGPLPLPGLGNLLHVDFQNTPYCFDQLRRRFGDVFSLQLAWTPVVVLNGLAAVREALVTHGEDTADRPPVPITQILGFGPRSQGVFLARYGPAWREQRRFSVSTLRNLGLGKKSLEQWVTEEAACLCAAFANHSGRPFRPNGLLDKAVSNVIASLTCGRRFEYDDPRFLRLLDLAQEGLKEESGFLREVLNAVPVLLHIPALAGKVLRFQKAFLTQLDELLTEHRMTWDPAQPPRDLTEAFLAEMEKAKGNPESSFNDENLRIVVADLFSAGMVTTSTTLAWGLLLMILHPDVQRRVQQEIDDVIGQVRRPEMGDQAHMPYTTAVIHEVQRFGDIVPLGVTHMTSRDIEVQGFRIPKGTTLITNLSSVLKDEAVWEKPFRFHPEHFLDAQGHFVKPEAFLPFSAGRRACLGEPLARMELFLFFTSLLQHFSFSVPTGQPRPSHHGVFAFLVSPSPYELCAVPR

Aromatase [9] = target: T2, Aromatase; assay: Inhibition of CYP19A1 (unknown origin) at 20 uM
Cynomolgus monkey = assay: Clearance in iv dosed cynomolgus monkey relative to hepatic blood flow; assay type: ADME, organism-based, Macaca fascicularis; conditions: in vivo
[10] = Drug metabolism in human hepatocytes assessed as parent compound remaining at 10 uM after 30 mins by LC-MS/MS analysis; assay type: ADME, cell-based, Hepatocyte; conditions: read-out: Stability
Cytochrome P450 3A4 = Cytochrome P450 3A4 (Homo sapiens, UniProt P08684); assay: Inhibition of CYP3A4 (unknown origin) at 30 uM; assay type: ADME
Sequence of Cytochrome P450 3A4 (P08684 whole entry): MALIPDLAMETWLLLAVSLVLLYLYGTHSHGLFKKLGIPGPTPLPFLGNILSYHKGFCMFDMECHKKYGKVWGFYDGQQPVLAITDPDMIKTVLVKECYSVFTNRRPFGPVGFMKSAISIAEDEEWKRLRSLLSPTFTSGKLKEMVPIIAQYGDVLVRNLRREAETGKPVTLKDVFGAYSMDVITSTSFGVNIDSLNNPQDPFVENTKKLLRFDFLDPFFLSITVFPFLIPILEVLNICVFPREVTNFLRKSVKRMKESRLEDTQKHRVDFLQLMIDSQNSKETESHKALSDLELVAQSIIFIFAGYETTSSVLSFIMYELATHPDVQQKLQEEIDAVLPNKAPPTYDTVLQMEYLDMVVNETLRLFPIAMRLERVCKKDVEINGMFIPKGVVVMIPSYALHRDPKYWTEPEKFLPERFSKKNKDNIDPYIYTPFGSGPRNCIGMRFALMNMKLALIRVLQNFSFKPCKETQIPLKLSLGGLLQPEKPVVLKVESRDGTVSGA

[11] = Clearance in cynomolgus monkey hepatocytes relative to hepatic blood flow; assay type: ADME, cell-based, Macaca fascicularis, Hepatocyte; conditions: read-out: CLH
Rattus norvegicus = assay: Clearance in iv dosed Wistar Han rat relative to hepatic blood flow; assay type: ADME, organism-based; conditions: in vivo
[12] = Clearance in Wistar Han rat hepatocytes relative to hepatic blood flow; assay type: ADME, cell-based, Hepatocyte; conditions: read-out: CLH
Cytochrome P450 2C9 = Cytochrome P450 2C9 (Homo sapiens, UniProt P11712); assay: Inhibition of CYP2C9 (unknown origin) at 30 uM; assay type: ADME
Sequence of Cytochrome P450 2C9 (P11712 whole entry): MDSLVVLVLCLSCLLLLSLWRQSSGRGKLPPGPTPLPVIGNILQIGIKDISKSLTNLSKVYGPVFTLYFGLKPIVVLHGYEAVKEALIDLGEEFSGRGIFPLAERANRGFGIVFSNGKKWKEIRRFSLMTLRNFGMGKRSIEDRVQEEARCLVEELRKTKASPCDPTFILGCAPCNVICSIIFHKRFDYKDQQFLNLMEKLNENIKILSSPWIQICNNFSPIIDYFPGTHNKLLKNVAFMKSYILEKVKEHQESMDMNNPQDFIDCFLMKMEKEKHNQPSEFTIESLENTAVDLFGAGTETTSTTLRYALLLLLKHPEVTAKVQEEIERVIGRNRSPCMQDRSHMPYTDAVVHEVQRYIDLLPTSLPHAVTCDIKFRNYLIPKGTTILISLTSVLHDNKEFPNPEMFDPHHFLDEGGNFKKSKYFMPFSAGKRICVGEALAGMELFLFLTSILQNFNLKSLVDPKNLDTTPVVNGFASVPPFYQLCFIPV

[13] = Clearance in human hepatocytes relative to hepatic blood flow; assay type: ADME, cell-based, Hepatocyte; conditions: read-out: CLH
Macaca fascicularis [14] = organism: Macaca fascicularis; assay: Inhibition of cynomolgus monkey adrenal mitochondrial CYP11B2 at 1 uM using corticosterone as substrate after 60 mins in presence of NADPH by mass spectrometric analysis
[15] = target: T1, Steroid 17-alpha-hydroxylase/17,20 lyase; assay: Inhibition of CYP17A1 (unknown origin) at 20 uM; assay type: ADME
[16] = target: T3, Cytochrome P450 11B2, mitochondrial; assay: Inhibition of recombinant human CYP11B2 expressed in Chinese hamster V79MZ cells assessed as reduction in aldosterone production by mass spectrometric method; assay type: cell-based
[17] = target: T3, Cytochrome P450 11B2, mitochondrial; assay: Inhibition of recombinant human CYP11B2 expressed in Chinese hamster V79MZ cells assessed as reduction in aldosterone production at 1 uM by mass spectrometric method; assay type: cell-based
Canis familiaris = assay: Clearance in iv dosed Beagle dog relative to hepatic blood flow; assay type: ADME, organism-based, Canis lupus familiaris; conditions: in vivo
[18] = Clearance in Beagle dog hepatocytes relative to hepatic blood flow; assay type: ADME, cell-based, Canis lupus familiaris, Hepatocyte; conditions: read-out: CLH
[19] = Oral bioavailability in Beagle dog; assay type: ADME, organism-based, Canis lupus familiaris; conditions: in vivo

SMILES | pIC50 [1] | Ratio IC50 (Macaca fascicularis [2]) | pIC50 [3] | hepatic extraction ratio [4] | further results
O=C1CCCc2noc(Cc3ccccc3)c21 | 4.6 | 32 | 6.1 | 0.73 | 
N#Cc1ccc([C@H]2CCc3cncn32)c(F)c1 [OSILODROSTAT] | 7.4 |  | 7.7 |  | IC50 [5]: 3.98 µM
CN1C(=O)CCc2cc(-c3cccnc3)ccc21 | 6 | 230 | 8.4 |  | IC50 [5]: 0.316 µM; IC50 (Aromatase [6]): 0.1 µM
CC1(C)CCc2c(noc2Cc2ccc(C#N)cc2)C1 | 5.5 | 17 | 6.8 | 0.37 | 
CC1(C)CC(=O)c2c(noc2-c2ccccc2)C1 | 4.3 | < 53 | < 6 | 0.85 | IC50 [5]: > 31.6 µM
CC1(C)CC(=O)c2c(ncn2Cc2ccccc2)C1 |  |  | 7 |  | 
Clc1ccc(-n2ccnc2)cc1Cl |  |  | 7.2 |  | inhibition (INH) [7]: Not Active
Clc1ccc(-c2ccn[nH]2)cc1Cl |  |  | 5.3 |  | inhibition (INH) [7]: Not Active
CC1(C)CC(=O)c2c(noc2Cc2ccc(C(N)=O)cc2)C1 | 4.8 | 150 | 7 | 0.33 | bioavailability [8]: 8%; IC50 (Aromatase [6]): > 20 µM; inhibition (INH) (Cytochrome P450 2D6): Not Active; inhibition (INH) (Aromatase [9]): Not Active; CL (Cynomolgus monkey): 57%; remaining at 0.5 h, 10 µM [10]: 55%; inhibition (INH) (Cytochrome P450 3A4): Not Active; hepatic extraction ratio [11]: 0.22; CL (Rattus norvegicus): 62%; hepatic extraction ratio [12]: 0.6; inhibition (INH) (Cytochrome P450 2C9): Not Active; hepatic extraction ratio [13]: 0.33
N#Cc1ccc(Cc2onc3c2C(=O)CC(C2CC2)C3)cc1 (centres undefined) | 5.6 | 15 | 6.8 | 0.83 | 
CC1(C)CC(=O)C(C(=O)Cc2ccc(F)cc2)=C(N)C1 |  |  |  |  | inhibition (Macaca fascicularis [14]): inactive
CC1CC(=O)c2c(noc2Cc2ccccc2)C1 (centres undefined) | 5.5 | 130 | 7.6 | 0.73 | 
CC1(C)Cc2noc(Cc3ccc(F)cc3)c2C(O)C1 (centres undefined) |  |  |  |  | inhibition (Macaca fascicularis [14]): inactive
CC1(C)CC(=O)c2c(noc2Cc2ccccc2)C1 | 5.1 | 100 | 7.1 | 0.64 | inhibition (INH) [15]: Not Active; IC50 [5]: > 31.6 µM; IC50 (Aromatase [6]): > 31.6 µM; inhibition (INH) (Cytochrome P450 2D6): Not Active; inhibition (INH) (Aromatase [9]): Not Active; inhibition (INH) (Cytochrome P450 3A4): Not Active; inhibition (INH) [16]: Active; inhibition (INH) (Cytochrome P450 2C9): Not Active; IC50 [3]: 0.079 µM
COc1ccc(Cc2onc3c2C(=O)CC(C)(C)C3)cc1 | 5.8 | 95 | 7.8 | 0.86 | IC50 [5]: > 31.6 µM; IC50 (Aromatase [6]): > 31.6 µM
CC1(C)CC(=O)c2c(n[nH]c2Cc2ccc(C#N)cc2)C1 |  |  | < 6 |  | inhibition at 1 µM [17]: 54%
CC1(C)CC(=O)c2c(noc2Cc2ccc(C#N)cc2)C1 | 4.1 | 940 | 7.1 | 0.55 | inhibition (INH) [16]: Active
CC1(C)CC(=O)c2c(noc2Cc2ccc(C(=O)N3CC[C@@H](O)C3)cc2)C1 | 5 | 160 | 7 | < 0.24 | bioavailability [8]: 11%; IC50 (Aromatase [6]): > 20 µM; inhibition (INH) (Cytochrome P450 2D6): Not Active; CL (Canis familiaris): 35%; inhibition (INH) (Aromatase [9]): Not Active; CL (Cynomolgus monkey): 75%; hepatic extraction ratio [18]: < 0.3; remaining at 0.5 h, 10 µM [10]: 98%; inhibition (INH) (Cytochrome P450 3A4): Not Active; hepatic extraction ratio [11]: 0.28; bioavailability [19]: 85%; CL (Rattus norvegicus): 31%; hepatic extraction ratio [12]: 0.52; inhibition (INH) (Cytochrome P450 2C9): Not Active; hepatic extraction ratio [13]: < 0.24
CC1(C)CC(=O)c2c(noc2Cc2ccc(S(C)(=O)=O)cc2)C1 | 5.4 | 42 | 7.1 | < 0.24 | IC50 [5]: > 31.6 µM; hepatic extraction ratio [13]: 0.59
CN1CCN(C(=O)c2ccc(Cc3onc4c3C(=O)CC(C)(C)C4)cc2)CC1=O | 5 | 64 | 6.8 | < 0.24 | IC50 (Aromatase [6]): > 31.6 µM; inhibition (INH) (Cytochrome P450 2D6): Not Active; inhibition (INH) (Aromatase [9]): Not Active; inhibition (INH) (Cytochrome P450 3A4): Not Active; inhibition (INH) (Cytochrome P450 2C9): Not Active; hepatic extraction ratio [13]: 0.41
CC1CC(=O)c2c(noc2Cc2ccc(C#N)cc2)C1 (centres undefined) | 5.1 | 39 | 6.7 | 0.38 | 
Clc1ccc(-c2ccno2)cc1Cl |  |  | < 4.7 |  | inhibition (INH) [7]: Not Active
